From patent US20230158116A1, “USE OF HUMAN AMYLIN ANALOG POLYPEPTIDES FOR PROVIDING SUPERIOR GLYCEMIC CONTROL TO TYPE 1 DIABETICS” (I2O Therapeutics, Inc., priority 2020, published 2023)
Read-outs that look alike come from different tables or passages of the source. Starred links: 1 amine or outer side, 2 acyl side, 3 side chain; linkers in the order of their positions; H or OH if unused. Positions of bridges follow the written chain, without caps; N, C: chain ends. Residues, ends and D or L forms follow the SMILES beside them. Groups on a side chain read outwards from the residue. No end group written: not given here. *: point of attachment. C20 diacid = O=C(O)CCCCCCCCCCCCCCCCCCC(=O)*; γGlu = O=C(O)[C@H](CCC(=O)[*:2])N[*:1]

Columns and labels:
[1] = cited from earlier work
[2] = cited from earlier work; remark: listed apart in the source
[3] = type: in vivo, rat (male Wistar); parameters: hypo avoidance index (benefit index; below 70 mg/dL weighted 5× vs over 180 mg/dL): scale not given here; hazard index: time above 180 mg/dL (hyperglycemic) / benefit index: time in range (above 70, below 180 mg/dL): unit not given here; conditions: for benefit index: time in range (above 70, below 180 mg/dL) / hazard index: time above 180 mg/dL (hyperglycemic) / hypo avoidance index (benefit index; below 70 mg/dL weighted 5× vs over 180 mg/dL): STZ rat, A2 0 μg/kg/day
Description: Male Wistar rats are implanted intraperitoneally (sensor in abdominal aorta) with an HD-XG continuous glucose monitor (Data Sciences, St Paul, Minn.) (Brockway, Tiesma et al. 2015). This system allows up to 8 weeks of continuous capture of blood glucose concentrations.
Upon recovery from surgery and resumption of normal food intake, capture of glucose readings begins so as to include at least 4 days of non-diabetic record for each rat. To induce insulinopenic (type 1) diabetes, rats are fasted overnight and administered an intravenous dose of streptozotocin (STZ) of 60 mg/kg (Gajdosik, Gajdosikova et al. 1999). Glucose readings from the telemetry system are used to enhance survival post-STZ, by s.c. glucose supplementation in the event of hypoglycemia that often accompanies an initial release of insulin following β-cell toxicity. The telemetry is then used to affirm hyperglycemia (mean plasma glucose >300 mg/dL), and to determine if a second STZ treatment is necessary for rats that are not sufficiently hyperglycemic.
Upon becoming hyperglycemic, animals are treated daily with a sliding-scale of a long-acting insulin (insulin detemir, Levemir NOVO) so as to eliminate urinary ketones, but maintain 5% glycosuria, as determined by daily KETOSTIX and GLUCOSTIX testing, respectively (Young, Crocker et al. 1991).
Animals are assigned to one of 3 cohorts of insulin dosing (n=5/cohort). One cohort is defined as that necessary to attain −ve urinary ketones and +ve urinary glucose, as just described, but not greater than a total dose of 2 U/day. A second cohort is a high insulin dose cohort, 3× greater than cohort 1. A third cohort is one where insulin dose is 50% of that of cohort 1.
(§1) Following at least 1 week of insulin dose stabilization, animals are entered into each of 5 supplemental treatments comprising administration of the long-acting amylin agonist, compound A2, at doses of 1, 3, 10, 30 or 100 μg/day as a single daily injection, in addition to the fixed daily Levemir dose. (Alternatively, these studies could utilize relatively short-acting pramlintide as an amylin analog.) The […] is 32-37 hours in the rat, similar to that of albumin-bound insulin detemir. Daily dosing of each therefore maintains relatively constant concentrations of each, and a relatively ratio of concentrations.
Each dose level of compound A2 is maintained for 1 week, during which glucose data is captured via telemetry. The order in which doses of compound A2 are changed is determined by a 5×5 orthogonal latin square. That is, each animal receives each dose of compound A2, but in an order that is unique relative to that of the other 4 animals in the same insulin cohort. This treatment balances out time-dependent or order-dependent changes in metabolic status of each animal, such as regeneration of insulin secretory capacity, and accommodation to the effects of an amylin agonist.
Plasma glucose values from the final 4 days of each insulin/A2 combination are aggregated and analyzed according to frequency of occurrence (cumulative distributions). Analogous to the time-in-range (TIR) assessment of clinical benefit (sometimes termed “clinical utility”) in human diabetes trials (Beck, Bergenstal et al. 2018), glucose values are categorized within bins (<70, 70-180, and >180 mg/dL). Further cuts (>250 mg/dL) are also made. Parametric descriptors of glucose values are also derived for each combination (mean and SD values, linear and logarithmic, where data are not normal but are log-normal).
Higher benefit (i.e., utility) is indicated when TIR is greatest, with the proviso that values below 70 mg/dL are not more frequent. Higher benefit is also indicated when the SD for the distribution of glucose values is least.

[4] = Half-life of compound A2 in the rat; conditions: in vivo, read-out: 0% of compound A2 (half-life)
Procedure: as §1

[5] = in vivo; cited from earlier work

| Compound | Duration ([1]; in vivo) | Peak ([1]; in vivo) [h] | Onset ([1]; in vivo) [min] | also measured |
| --- | --- | --- | --- | --- |
| recombinant insulin [Novo's Novolin ® (recombinant insulin)] | 5 to 8 h | 2 to 5 |  |  |
| human amylin: 37-residue polypeptide hormone co-secreted with insulin from pancreatic β-cells (SEQ ID NO: 5) (KCNTATCATQRLANFLVHSSNNFGAILSSTNVGSNTY; disulfide 2-7; listed as Homo sapiens) |  |  |  | half-life ([2]; in humans): about 13 minutes; half-life in serum ([2]; serum): about 13 minutes |
| lispro [Lilly's Humalog ® (lispro)] | 3 to 5 h | 0.5 to 1.5 | 15 to 30 |  |
| insulin detemir [Novo's Levemir ® (insulin detemir)] | Up to 24 hours | 6 to 8 | 60 to 120 | benefit index: time in range (above 70, below 180 mg/dL) ([3]; insulin 1 U/day): 39.5; hazard index: time above 180 mg/dL (hyperglycemic) ([3]; insulin 1 U/day): 60.2; hypo avoidance index (benefit index; below 70 mg/dL weighted 5× vs over 180 mg/dL) ([3]; insulin 1 U/day): 33.8; benefit index: time in range (above 70, below 180 mg/dL) ([3]; insulin 2 U/day): 64.9; hazard index: time above 180 mg/dL (hyperglycemic) ([3]; insulin 2 U/day): 29.4; hypo avoidance index (benefit index; below 70 mg/dL weighted 5× vs over 180 mg/dL) ([3]; insulin 2 U/day): 41.6; benefit index: time in range (above 70, below 180 mg/dL) ([3]; insulin 6 U/day): 78.9; hazard index: time above 180 mg/dL (hyperglycemic) ([3]; insulin 6 U/day): 2.8; hypo avoidance index (benefit index; below 70 mg/dL weighted 5× vs over 180 mg/dL) ([3]; insulin 6 U/day): 5.7; blood glucose values within range 70-180 mg/dL (TIR) ([3]; post-STZ rats, 2 U/day Levemir, no A2): 64.9%; blood glucose values <70 mg/dL ([3]; rat, in vivo): 5.8%; proportion of time spent below 70 mg/dL ([3]; rat, in vivo): markedly increase |
| CC[C@H](C)[C@H](NC(=O)[C@@H]1CCCN1C(=O)CNC(=O)[C@H](Cc1ccccc1)NC(=O)[C@H](CC(N)=O)NC(=O)[C@H](CC(N)=O)NC(=O)[C@H](CO)NC(=O)[C@H](CO)NC(=O)[C@H](CCCCN)NC(=O)[C@H](Cc1c[nH]cn1)NC(=O)[C@H](CC(C)C)NC(=O)[C@H](CCC(=O)O)NC(=O)[C@H](CC(N)=O)NC(=O)[C@H](C)NC(=O)[C@H](CC(C)C)NC(=O)[C@H](CCCNC(=N)N)NC(=O)[C@H](CCC(N)=O)NC(=O)[C@@H](NC(=O)[C@H](C)NC(=O)[C@@H]1CSSC[C@H](NC(=O)[C@@H](N)CCCCNC(=O)CC[C@H](NC(=O)CC[C@H](NC(=O)CCCCCCCCCCCCCCCCCCC(=O)O)C(=O)O)C(=O)O)C(=O)N[C@@H](CC(N)=O)C(=O)N[C@@H]([C@@H](C)O)C(=O)N[C@@H](CO)C(=O)N[C@@H]([C@@H](C)O)C(=O)N1)[C@@H](C)O)C(=O)N[C@@H](CC(C)C)C(=O)N1CCC[C@H]1C(=O)N1CCC[C@H]1C(=O)N[C@H](C(=O)N[C@@H](CCCCN)C(=O)N[C@H](C(=O)NCC(=O)N[C@@H](CO)C(=O)N[C@@H](CCC(=O)O)C(=O)N[C@H](C(=O)N[C@@H](Cc1ccc(O)cc1)C(N)=O)[C@@H](C)O)C(C)C)[C@@H](C)O [Compound A2] (H-K([γGlu-γGlu-C20 diacid])CNTSTCATQRLANELHKSSNNFGPILPPTKVGSETY-NH2; disulfide 2-7) |  |  |  | half-life [4]: 32 to 37 h |
| insulin glargine | 20 to 24 h |  |  | Peak ([1]; result in words): No peak time. |
| aspart [Novo's Novolog ® (aspart)] | 3 to 5 h | 0.667 to 0.833 | 10 to 20 |  |
| velosulin: human insulin for use in an insulin pump, short-acting | 2 to 3 h | 1 to 2 |  |  |
| Davalintide |  |  |  | half-life [5]: about 26 minutes |
| glulisine [Sanofi's Apidra ® (glulisine)] |  | 0.5 to 1.5 | 20 to 30 |  |
| aspart [Fiasp ® (aspart)] | 3 to 5 h | 1 to 3 |  | Onset, sooner than Rapid Acting Insulins ([1]; relative to rapid-acting insulins): about 5 mins |
| insulin degludec [Novo's Tresiba ® (insulin degludec)] | 42 h |  | 30 to 90 | Peak ([1]; result in words): No peak time |
